“Also recorded” adds a separate entry of the source. One block for each compound: values may come before it.
Columns and labels:
[1] = tested on: cyclophilins; test: Prolyl-isomerase inhibition screen on cyclophilins and cyclophilin mutants; type: biochemical, human
Experimental: (§1) IC50 values were calculated to be the value at which 50% inhibition was achieved on each compound's non-linear regression fitted curve.

[2] = tested on: cyclophilins; test: Anisotropy binding assay of fluorescein-labeled macrocycles; design: species or system human; settings: 0.5 nM fluorescein-labeled macrocycle
Experimental: Final assay volume was 100 μL with 0.25% DMSO. Fluorescence anisotropy was then measured using a Tecan Spark® plate reader using 492 nm/523 nm excitation/emission settings.

[3] = target: T1, CypD (Homo sapiens, UniProt P30405); test: Chymotrypsin coupled prolyl-isomerase assay; type: biochemical
T1 construct: PPIF (UniProtKB Entry P30405: res 45-207); made in house; host or cells: E. coli BL21(DE3)
T1 sequence (P30405 45-207): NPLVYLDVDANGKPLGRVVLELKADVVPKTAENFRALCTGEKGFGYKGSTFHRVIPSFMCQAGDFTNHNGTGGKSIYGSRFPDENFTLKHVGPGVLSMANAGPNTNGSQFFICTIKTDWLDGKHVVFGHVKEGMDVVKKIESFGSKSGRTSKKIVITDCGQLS
Experimental: as §1

[4] = tested on: HeLa cells; test: Fluorescence microscopy on HeLa cells; type: cell-based, human; settings: Cy5 labeled compound 6 μM
Experimental: Fluorescence microscopy on Hela cells. Into 96 well black, clear bottom TC treated plates, cells were seeded in Dulbecco's Modified Eagle Medium (DMEM) supplemented with 10% fetal bovine serum 24 hours prior at a density where wells were ˜80% confluent at time of experiment. Media was removed and cells were then stained with 50 μL of mixture containing Cy5 labeled compound (6 μM) in Kreb's ringer solution HEPES buffered pH 7.2 (KRB), for 1 hour at 37° C. Then, 50 μL Hoechst 33342 (8 μM) and Mitotracker Green FM (0.1 μM) in KRB was added directly to wells containing cells and incubated for 15 minutes at 37° C. Media was removed and cells were washed two times with 100 μL KRB. Cells were then kept adherent to the wells in 100 μL KRB for imaging. Fluorescence microscopy was conducted on an Opera Phenix Plus High-Content Screening System, using Alexa 488, Alexa 647, and Hoescht 33342 channels. Images were analyzed using Harmony 4.9.

[5] = target: T2, CypE (Homo sapiens, UniProt Q9UNP9); test: Chymotrypsin coupled prolyl-isomerase assay; type: biochemical; settings: for IC50: wild-type CypE, read-out: IC50^CypE
T2 construct: PPIE (UniProtKB Entry Q9UNP9: res 131-301); host or cells: E. coli BL21(DE3)
T2 sequence (Q9UNP9 131-301): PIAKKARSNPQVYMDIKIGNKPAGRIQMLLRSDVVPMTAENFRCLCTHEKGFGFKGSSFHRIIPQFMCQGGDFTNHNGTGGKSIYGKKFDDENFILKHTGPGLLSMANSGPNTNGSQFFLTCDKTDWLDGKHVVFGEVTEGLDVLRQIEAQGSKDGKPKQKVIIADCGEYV
Experimental: as §1

[6] = target: T2, CypE; test: Competition anisotropy (fluorescence polarization) binding assay with A26-Fl; settings: for CypE binding in FP competition (in words): compared to C3A
Experimental: Competition anisotropy binding assay with A26-Fl: Adapted from previous work^54, into a flat-bottom black untreated 96 well plate (Corning), cyclophilin in assay buffer (25 mM HEPES pH 8.0, 100 mM NaCl, 0.01% Triton X-100) at a predetermined concentration from FIG. 27 was incubated with 0.5 nM A26-Fl for 10 minutes at room temperature. Competitor macrocycle was then added to each well and incubated for 24 hours. Final assay volume was 100 μL with 0.25% DMSO. Fluorescence anisotropy was then measured using a Tecan Spark® plate reader using 492 nm/523 nm excitation/emission settings. Raw fluorescence polarization data was normalized to protein+fluorescent probe and buffer+fluorescent probe and Ki values were calculated using one site-competitive binding equation with Prism 9, importing Kd values from A26-Fl (FIGS. 12A-12C).

[7] = tested on: mPTP opening in isolated mouse liver mitochondria; test: Mitochondrial calcium retention capacity assay; type: cell-based; settings: 2 μM CsA, 10 μM B52-Cy5, 10 μM *B52-Cy5, 20 μM B53-Cy5, 20 μM *B53-Cy5; pulses of 60 μM CaCl2; compared to DMSO control
Experimental: Isolation of mouse liver mitochondria: All procedures used in animal studies were approved by the Institutional Animal Care and Use Committee at Massachusetts General Hospital. Female C57B1/6 J mice (Jackson Labs) age 10-12 weeks were anesthetized by isoflurane. The liver from one mouse was rinsed in ice-cold PBS, minced in ice-cold isolation buffer containing 0.28 M sucrose, 10 mM Hepes-KOH pH 7.2, 0.2 mM EDTA and 1% (w/v) BSA, gently homogenized with 4 strokes of a tight-fitting Teflon pestle at 1000 rpm, and then centrifuged for 10 minutes at 600 g at 4° C. The supernatant was recovered and centrifuged for 10 minutes at 8000 g at 4° C. The loose outer buffy coat was rinsed off and the pellet resuspended gently in isolation buffer and the spins were repeated. […] The suspension was kept on ice and all assays performed within 4-6 hours following isolation. Quality control was done with every preparation by adding 250 mcg mitochondria to 500 μl of assay buffer containing 137 mM KCl, 10 mM Hepes-KOH pH 7.2, 2.5 mM MgCl2, 5 mM each of glutamate and malate, and 3 mM KH2PO4. Sequential 150 μM ADP pulses were then delivered. Preparations with respiratory control ratio>6 (as assessed by the ratio of ADP-coupled state 3 respiration to state 4 respiration) were used for further experiments. Measurements were made in a custom-built fluorimeter using a cuvette with a Red Eye oxygen patch (Ocean Optics) and an optical probe that is connected to the fluorimeter.
Mitochondrial calcium retention capacity assays: 250 mcg of mouse liver mitochondria isolated as above were added to […] of assay buffer containing 125 mM KCl, 20 mM Hepes-KOH pH 7.2, 1 mM MgCl2, 5 mM each of glutamate and malate, and 3 mM KH2PO4. 0.5 μM Calcium Green-5N (Molecular Probes) was included to monitor extramitochondrial free Ca^2+. Fluorescence was continuously monitored in the custom-built fluorimeter described above, with excitation 470 nm and emission […]. Sequential 60 μM CaCl2) pulses were delivered until Ca^2+ uptake ceased and an abrupt release of previously taken up Ca^2+ was observed, consistent with mPTP opening. The calcium retention capacity ratio (CRC) was obtained by normalizing the number of Ca^2+ pulses that could be taken up in a given condition by that taken up under DMSO control conditions, as previously described^72.

cyclophilin selectivity profile (in words) [1]: retain the same selectivity profile
SMILES: NC(=O)[C@@H]1CCNC(=O)/C=C/C(=O)N2CCC[C@](Cc3ccccc3)(C2)C(=O)N[C@@H](Cc2ccc(-c3ccc(CC(C(=O)O)C(=O)O)cc3)cc2)C(=O)NCc2ccccc2CC(=O)N1 [Compound B52-A]

binding to five non-prolyl isomerase active cyclophilins (PPIL2, PPIL3, PPIL4, PPIL6, SDCCAG-10) [2]: very weak or no binding | binding to prolyl-isomerase-active cyclophilins (in words) [2]: selective binding for CypD
SMILES: O=C1/C=C/C(=O)N2CCC[C@](Cc3ccccc3)(C2)C(=O)N[C@@H](Cc2ccc(-c3ccc(CC(C(=O)O)C(=O)O)cc3)cc2)C(=O)NCc2ccccc2CC(=O)N[C@H](C(=O)NCCCOCCOCCOCCCNC(=O)c2ccc3c(c2)C(=O)OC32c3ccc(O)cc3Oc3cc(O)ccc32)CCN1 [Compound B52-Fl]

cyclophilin selectivity profile (in words) [1]: retain the same selectivity profile
SMILES: NC(=O)[C@@H]1CCNC(=O)/C=C/C(=O)N2CCC[C@](Cc3ccccc3)(C2)C(=O)N[C@@H](Cc2ccc(-c3ccc(C(CC(=O)O)CC(=O)O)cc3)cc2)C(=O)NCc2ccccc2CC(=O)N1 [Compound B53-A]

binding to five non-prolyl isomerase active cyclophilins (PPIL2, PPIL3, PPIL4, PPIL6, SDCCAG-10) [2]: very weak or no binding | binding to prolyl-isomerase-active cyclophilins (in words) [2]: selective binding for CypD
SMILES: O=C(O)CC(CC(=O)O)c1ccc(-c2ccc(C[C@@H]3NC(=O)[C@]4(Cc5ccccc5)CCCN(C4)C(=O)/C=C/C(=O)NCC[C@@H](C(=O)NCCCOCCOCCOCCCNC(=O)c4ccc5c(c4)C(=O)OC54c5ccc(O)cc5Oc5cc(O)ccc54)NC(=O)Cc4ccccc4CNC3=O)cc2)cc1 [Compound B53-Fl]

binding to five non-prolyl isomerase active cyclophilins (PPIL2, PPIL3, PPIL4, PPIL6, SDCCAG-10) [2]: very weak or no binding | binding to prolyl-isomerase-active cyclophilins (in words) [2]: promiscuously binds
SMILES: O=C1/C=C/C(=O)N2CCC[C@](Cc3ccccc3)(C2)C(=O)N[C@@H](Cc2ccco2)C(=O)NCc2ccccc2CC(=O)N[C@H](C(=O)NCCCOCCOCCOCCCNC(=O)c2ccc3c(c2)C(=O)OC32c3ccc(O)cc3Oc3cc(O)ccc32)CCN1 [Compound A26-Fl]

cyclophilin selectivity profile (in words) [1]: retain the same selectivity profile | plasma membrane / mammalian cell permeability [4]: not observed
SMILES: CN1/C(=C/C=C/C=C/C2=[N+](CCCCCC(=O)NCCNC(=O)[C@@H]3CCNC(=O)/C=C/C(=O)N4CCC[C@](Cc5ccccc5)(C4)C(=O)N[C@@H](Cc4ccc(-c5ccc(CC(C(=O)O)C(=O)O)cc5)cc4)C(=O)NCc4ccccc4CC(=O)N3)c3ccccc3C2(C)C)C(C)(C)c2ccccc21 [Compound B52-Cy5]
calcium retention capacity prior to mPTP opening [7]: increased calcium retention capacity | mitochondrial localization (overlap with Mitotracker Green) [4]: poor mitochondrial localization and fluorescence

cyclophilin selectivity profile (in words) [1]: hampers the selectivity | inhibition of cyclophilins tested (in words) [1]: loss of potency
SMILES: N#CCc1ccc(-c2ccc(C[C@@H]3NC(=O)[C@]4(Cc5ccccc5)CCCN(C4)C(=O)/C=C/C(=O)NCC[C@@H](C(=O)NCCOCCN)NC(=O)Cc4ccccc4CNC3=O)cc2)cc1C(=O)O [Compound B51]

cyclophilin selectivity profile (in words) [1]: retain the same selectivity profile | plasma membrane / mammalian cell permeability [4]: not observed
SMILES: CN1/C(=C/C=C/C=C/C2=[N+](CCCCCC(=O)NCCNC(=O)[C@@H]3CCNC(=O)/C=C/C(=O)N4CCC[C@](Cc5ccccc5)(C4)C(=O)N[C@@H](Cc4ccc(-c5ccc(C(CC(=O)O)CC(=O)O)cc5)cc4)C(=O)NCc4ccccc4CC(=O)N3)c3ccccc3C2(C)C)C(C)(C)c2ccccc21 [Compound B53-Cy5]
calcium retention capacity prior to mPTP opening [7]: increased calcium retention capacity | mitochondrial localization (overlap with Mitotracker Green) [4]: poor mitochondrial localization and fluorescence

The remaining lines, values behind:

SMILES: NC(=O)[C@H]1CCNC(=O)/C=C/C(=O)N2CCC[C@](Cc3ccccc3)(C2)C(=O)N[C@H](Cc2ccc(-c3ccc(CC(C(=O)O)C(=O)O)cc3)cc2)C(=O)NCc2ccccc2CC(=O)N1 [*B52-A]
inhibition of cyclophilins tested (in words) [1]: no substantial inhibition activity; also recorded: did not inhibit any cyclophilin

SMILES: NCCOCCNC(=O)[C@@H]1CCNC(=O)/C=C/C(=O)N2CCC[C@](Cc3ccccc3)(C2)C(=O)N[C@@H](Cc2ccc(-c3ccc(CCC(=O)O)cc3)cc2)C(=O)NCc2ccccc2CC(=O)N1 [Compound B23]
cyclophilin selectivity profile (in words) [1]: selectivity over non-lysine-containing PPIL1, Cyp40, CypC, and PPWD1

SMILES: CC(=O)NCCNC(=O)CCCCCN1\C(=C/C=C/C=C/C2=[N+](C)c3ccccc3C2(C)C)C(C)(C)c2ccccc21 [Cy5-enAc, reference compound]
CypD prolyl-isomerase inhibition (in words) [3]: does not inhibit CypD | mitochondrial localization (overlap with Mitotracker Green) [4]: good mitochondrial localization

SMILES: CC(=O)c1ccc(-c2ccc(C[C@@H]3NC(=O)[C@]4(Cc5ccccc5)CCCN(C4)C(=O)/C=C/C(=O)NCC[C@@H](C(N)=O)NC(=O)Cc4ccccc4CNC3=O)cc2)cc1B(O)O [Compound C1A]
CypE potency and selectivity in prolyl isomerase assay (in words) [5]: loss of potency and selectivity for CypE | IC50 [5]: 900 nM | CypE binding in FP competition (in words) [6]: attenuated binding to CypE; also recorded: decreased potency for CypE

SMILES: NCCOCCNC(=O)[C@@H]1CCNC(=O)/C=C/C(=O)N2CCC[C@](Cc3ccccc3)(C2)C(=O)N[C@@H](Cc2ccc(-c3ccccc3)cc2)C(=O)NCc2ccccc2CC(=O)N1 [Compound B2]
cyclophilin selectivity profile (in words) [1]: selectivity over cyclophilins with sterically occluded S2 pockets

SMILES: NCCOCCNC(=O)[C@@H]1CCNC(=O)/C=C/C(=O)N2CCC[C@](Cc3ccccc3)(C2)C(=O)N[C@@H](Cc2ccc(-c3ccc(C#CC(=O)O)cc3)cc2)C(=O)NCc2ccccc2CC(=O)N1 [Compound B25]
cyclophilin selectivity profile (in words) [1]: selectivity over non-lysine-containing PPIL1, Cyp40, CypC, and PPWD1

SMILES: NC(=O)[C@@H]1CCNC(=O)/C=C/C(=O)N2CCC[C@](Cc3ccccc3)(C2)C(=O)N[C@@H](Cc2ccc(-c3cccc(B(O)O)c3)cc2)C(=O)NCc2ccccc2CC(=O)N1 [Compound C6A]
IC50 [5]: 4000 nM | decrease in potency relative to C3A ([6]; FP competition with A26-Fl against CypE): 100 fold | CypE binding in FP competition (in words) [6]: attenuated inhibition of CypE

SMILES: NC(=O)[C@H]1CCNC(=O)/C=C/C(=O)N2CCC[C@](Cc3ccccc3)(C2)C(=O)N[C@H](Cc2ccc(-c3ccc(C(CC(=O)O)CC(=O)O)cc3)cc2)C(=O)NCc2ccccc2CC(=O)N1 [*B53-A]
inhibition of cyclophilins tested (in words) [1]: no substantial inhibition activity; also recorded: did not inhibit any cyclophilin

SMILES: CC(=O)c1cc(-c2ccc(C[C@@H]3NC(=O)[C@]4(Cc5ccccc5)CCCN(C4)C(=O)/C=C/C(=O)NCC[C@@H](C(N)=O)NC(=O)Cc4ccccc4CNC3=O)cc2)ccc1B(O)O [Compound C2A]
CypE binding in FP competition (in words) [6]: attenuated binding to CypE; also recorded: decreased potency for CypE
